Like-named read-outs stand apart in the source and are kept apart here.
Biological target: T1, human FXR (NR1H4) (Homo sapiens, UniProt Q96RI1)
T1 sequence (Q96RI1 1-486): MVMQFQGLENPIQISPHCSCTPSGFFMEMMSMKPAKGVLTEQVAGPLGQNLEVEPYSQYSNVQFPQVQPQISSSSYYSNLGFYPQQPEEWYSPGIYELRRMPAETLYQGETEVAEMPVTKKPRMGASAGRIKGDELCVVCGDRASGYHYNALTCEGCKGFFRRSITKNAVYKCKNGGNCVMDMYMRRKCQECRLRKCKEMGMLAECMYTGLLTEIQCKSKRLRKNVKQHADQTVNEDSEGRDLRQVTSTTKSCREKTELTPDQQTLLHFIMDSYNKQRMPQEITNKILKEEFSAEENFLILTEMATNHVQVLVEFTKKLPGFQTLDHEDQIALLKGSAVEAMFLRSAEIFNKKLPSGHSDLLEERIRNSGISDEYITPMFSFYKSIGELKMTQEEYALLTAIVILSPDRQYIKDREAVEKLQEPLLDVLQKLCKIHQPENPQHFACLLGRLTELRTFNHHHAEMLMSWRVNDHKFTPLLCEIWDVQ
Test: Human FXR (NR1H4) Assay: Gal4 promoter driven luciferase reporter transactivation in CHO cells (Indigo Bioscience kit IB00601)
Assay type: cell-based
Conditions: for Emax: CHO, read-out: Efficacy (%); for EC50: Human FXR (NR1H4) reporter assay in CHO cells
Text: Human FXR (NR1H4) Assay Determination of a ligand mediated Gal4 promoter driven transactivation to quantify ligand binding mediated activation of FXR. FXR Reporter Assay kit purchased from Indigo Bioscience (Catalogue number: IB00601) to determine the potency and efficacy of compounds that can induce FXR activation. The principle application of this reporter assay system is to quantify functional activity of human FXR. The assay utilizes non-human mammalian cells, CHO (Chinese hamster ovary) cells engineered to express human NR1H4 protein (referred to as FXR). Reporter cells also incorporate the cDNA encoding beetle luciferase which catalyzes the substrates and yields photon emission. Luminescence intensity of the reaction is quantified using a plate-reading luminometer, Envision. Reporter Cells include the luciferase reporter gene functionally linked to an FXR responsive promoter. Thus, quantifying changes in luciferase expression in the treated reporter cells provides a sensitive surrogate measure of the changes in FXR activity. […] The assay is according to the manufacturer's instructions. […] Retrieve Reporter Cells from −80° C. storage. Perform a rapid thaw of the frozen cells by transferring a 10 ml volume of 37° C. cell recovery medium into the tube of frozen cells. […] Retrieve the tube of Reporter Cell Suspension from the water bath. […] Dispense 90 μl of cell suspension into each well of the 96-well Assay Plate. Transfer the plate into 37° C. incubator, allowing the cells adherent to the bottom of the well. Dilute compounds in Dilution Plate (DP), and administrate to cells at Assay Plate (AP). […] Cells were incubated for additional 22 hours before luciferase activities were measured. Thirty minutes before intending to quantify FXR activity, remove Detection Substrate and Detection Buffer from the refrigerator and place them in a low-light area so that they may equilibrate to room temperature. Remove the plate's lid and discard all media contents by ejecting it into an appropriate waste container. Gently tap the inverted plate onto a clean absorbent paper towel to remove residual droplets. Cells will remain tightly adhered to well bottoms. Add 100 μl of luciferase detection reagent to each well of the assay plate. Allow the assay plate to rest at room temperature for at least 5 minutes following the addition of LDR. Set the instrument (Envision) to perform a single 5 second “plate shake” prior to reading the first assay well. Read time may be 0.5 second (500 mSec) per well.

[1] = efficacy normalized to CDCA set as 100%

Compound | Emax | EC50 (potency range, read-out: EC50) | EC50 (EC50, potency range) | Emax [1]
CCOC(=O)c1ccc2c(c1)CCN2C(=O)N1C2CCC1CC(OCc1c(-c3ccccc3OC(F)(F)F)noc1C1CC1)C2 (stereo not shown) [Example 591] | 166% | > 1000 nM | – | –
O=C(O)c1ccc2c(c1)CCN2C(=O)N1C2CCC1CC(OCc1c(-c3ccccc3OC(F)(F)F)noc1C1CC1)C2 (stereo not shown) [Example 592] | 227% | > 1000 nM | – | –
CCOC(=O)c1ccc2c(c1)CCCN2C(=O)N1C2CCC1CC(OCc1c(-c3ccccc3OC(F)(F)F)noc1C1CC1)C2 (stereo not shown) [Example 593] | 40% | > 1000 nM | – | –
O=C(O)c1ccc2c(c1)CCCN2C(=O)N1C2CCC1CC(OCc1c(-c3ccccc3OC(F)(F)F)noc1C1CC1)C2 (stereo not shown) [Example 594] | 49% | 100 to 1000 nM | – | –
CCOC(=O)c1ccc2c(c1)N(C(=O)N1C3CCC1CC(OCc1c(-c4ccccc4OC(F)(F)F)noc1C1CC1)C3)CCC2 (stereo not shown) [Example 595] | 7% | > 1000 nM | – | –
O=C(O)c1ccc2c(c1)N(C(=O)N1C3CCC1CC(OCc1c(-c4ccccc4OC(F)(F)F)noc1C1CC1)C3)CCC2 (stereo not shown) [Example 596] | 48% | > 1000 nM | – | –
COC(=O)c1ccc2c(c1)CN(C(=O)N1C3CCC1CC(OCc1c(-c4ccccc4OC(F)(F)F)noc1C1CC1)C3)C2 (stereo not shown) [Example 597] | 53% | – | 100 to 1000 nM | –
O=C(O)c1ccc2c(c1)CN(C(=O)N1C3CCC1CC(OCc1c(-c4ccccc4OC(F)(F)F)noc1C1CC1)C3)C2 (stereo not shown) [Example 598] | 105% | 10 to 100 nM | – | –
O=C(O)c1ccc(NC(=O)N2C3CCC2CC(OCc2c(-c4c(Cl)cccc4Cl)noc2C2CC2)C3)c(F)c1 (stereo not shown) [Example 692] | – | < 10 nM | – | 156%
CC1(S(=O)(=O)NC(=O)c2ccc(NC(=O)N3C4CCC3CC(OCc3c(-c5c(Cl)cccc5Cl)noc3C3CC3)C4)c(F)c2)CC1 (stereo not shown) [Example 693] | – | 100 to 1000 nM | – | 203%
C[C@@H](NC(=O)N1C2CCC1CC(OCc1c(-c3c(Cl)cccc3Cl)noc1C1CC1)C2)c1ccccc1 (stereo partly shown) [Example 694] | 124% | 100 to 1000 nM | – | –
CN(C)S(=O)(=O)NC(=O)c1ccc(NC(=O)N2C3CCC2CC(OCc2c(-c4c(Cl)cccc4Cl)noc2C2CC2)C3)cc1 (stereo not shown) [Example 695] | – | 10 to 100 nM | – | 140%
O=C(Nc1ccccc1)N1C2CCC1CC(OCc1c(-c3c(Cl)cccc3Cl)noc1C1CC1)C2 (stereo not shown) [Example 696] | – | < 10 nM | – | 246%
CC(C)(C)c1ccc(NC(=O)N2C3CCC2CC(OCc2c(-c4c(Cl)cccc4Cl)noc2C2CC2)C3)cc1 (stereo not shown) [Example 697] | – | 100 to 1000 nM | – | 174%
O=C(Nc1ccc(F)cc1)N1C2CCC1CC(OCc1c(-c3c(Cl)cccc3Cl)noc1C1CC1)C2 (stereo not shown) [Example 698] | – | 10 to 100 nM | – | 182%
O=C(Nc1ccc(F)c(F)c1)N1C2CCC1CC(OCc1c(-c3c(Cl)cccc3Cl)noc1C1CC1)C2 (stereo not shown) [Example 699] | – | 10 to 100 nM | – | 232%
O=C(Nc1cc(F)cc(F)c1)N1C2CCC1CC(OCc1c(-c3c(Cl)cccc3Cl)noc1C1CC1)C2 (stereo not shown) [Example 700] | – | < 10 nM | – | 292%
O=C(Nc1ccc(-c2nnn[nH]2)cc1)N1C2CCC1CC(OCc1c(-c3c(Cl)cccc3Cl)noc1C1CC1)C2 (stereo not shown) [Example 701] | – | 100 to 1000 nM | – | 306%
O=C(Nc1ccc(F)c(C(F)(F)F)c1)N1C2CCC1CC(OCc1c(-c3c(Cl)cccc3Cl)noc1C1CC1)C2 (stereo not shown) [Example 702] | – | < 10 nM | – | 258%

Compound | Emax | EC50 (potency range, read-out: EC50) | EC50 (EC50, potency range) | Emax [1]
N#Cc1cncc(NC(=O)N2C3CCC2CC(OCc2c(-c4c(Cl)cccc4Cl)noc2C2CC2)C3)c1 (stereo not shown) [Example 703] | – | < 10 nM | – | 170%
N#Cc1cc(F)cc(NC(=O)N2C3CCC2CC(OCc2c(-c4c(Cl)cccc4Cl)noc2C2CC2)C3)c1 (stereo not shown) [Example 704] | – | < 10 nM | – | 157%
C[C@H](NC(=O)N1C2CCC1CC(OCc1c(-c3c(Cl)cccc3Cl)noc1C1CC1)C2)c1ccccc1 (stereo partly shown) [Example 705] | – | < 10 nM | – | 242%
O=C(Nc1cccc(-c2ccc(C(F)(F)F)nc2)c1)N1C2CCC1CC(OCc1c(-c3c(Cl)cccc3Cl)noc1C1CC1)C2 (stereo not shown) [Example 706] | – | 10 to 100 nM | – | 207%
O=C(c1ccc(-c2cccc(NC(=O)N3C4CCC3CC(OCc3c(-c5c(Cl)cccc5Cl)noc3C3CC3)C4)c2)cc1)N1CCOCC1 (stereo not shown) [Example 707] | – | 10 to 100 nM | – | 220%
O=C(Nc1cccc(-c2cnn(C3CCOCC3)c2)c1)N1C2CCC1CC(OCc1c(-c3c(Cl)cccc3Cl)noc1C1CC1)C2 (stereo not shown) [Example 708] | – | < 10 nM | – | 209%
COC(=O)c1ccc(NC(=O)N2C3CCC2CC(OCc2c(-c4c(Cl)cccc4Cl)noc2C2CC2)C3)c(C(F)(F)F)c1 (stereo not shown) [Example 709] | – | 100 to 1000 nM | – | 119%
O=C(O)c1ccc(NC(=O)N2C3CCC2CC(OCc2c(-c4c(Cl)cccc4Cl)noc2C2CC2)C3)c(C(F)(F)F)c1 (stereo not shown) [Example 710] | – | 10 to 100 nM | – | 170%
O=C(Nc1cccc(C2=CCCCC2)c1)N1C2CCC1CC(OCc1c(-c3c(Cl)cccc3Cl)noc1C1CC1)C2 (stereo not shown) [Example 711] | – | < 10 nM | – | 157%
O=C(Nc1cccc(C2CCCCC2)c1)N1C2CCC1CC(OCc1c(-c3c(Cl)cccc3Cl)noc1C1CC1)C2 (stereo not shown) [Example 712] | – | 10 to 100 nM | – | 144%
CC(=O)N1CC=C(c2cccc(NC(=O)N3C4CCC3CC(OCc3c(-c5c(Cl)cccc5Cl)noc3C3CC3)C4)c2)CC1 (stereo not shown) [Example 713] | – | < 10 nM | – | 162%
CC(=O)N1CCC(c2cccc(NC(=O)N3C4CCC3CC(OCc3c(-c5c(Cl)cccc5Cl)noc3C3CC3)C4)c2)CC1 (stereo not shown) [Example 714] | – | 10 to 100 nM | – | 156%
CN1CC=C(c2cccc(NC(=O)N3C4CCC3CC(OCc3c(-c5c(Cl)cccc5Cl)noc3C3CC3)C4)c2)CC1 (stereo not shown) [Example 715] | – | 10 to 100 nM | – | 123%
COC(=O)c1ccc(NC(=O)N2C3CCC2CC(OCc2c(-c4c(Cl)cccc4Cl)noc2C2CC2)C3)c(OC(F)(F)F)c1 (stereo not shown) [Example 716] | – | 100 to 1000 nM | – | 43%
O=C(O)c1ccc(NC(=O)N2C3CCC2CC(OCc2c(-c4c(Cl)cccc4Cl)noc2C2CC2)C3)c(OC(F)(F)F)c1 (stereo not shown) [Example 717] | – | 100 to 1000 nM | – | 149%
CCOc1cc(C(=O)OC)ccc1NC(=O)N1C2CCC1CC(OCc1c(-c3c(Cl)cccc3Cl)noc1C1CC1)C2 (stereo not shown) [Example 718] | – | 10 to 100 nM | – | 119%
COC(=O)c1ccc(NC(=O)N2C3CCC2CC(OCc2c(-c4c(Cl)cccc4Cl)noc2C2CC2)C3)c(OC(C)C)c1 (stereo not shown) [Example 719] | – | 100 to 1000 nM | – | 104%
CCOc1cc(C(=O)O)ccc1NC(=O)N1C2CCC1CC(OCc1c(-c3c(Cl)cccc3Cl)noc1C1CC1)C2 (stereo not shown) [Example 720] | – | < 10 nM | – | 171%
CC(C)Oc1cc(C(=O)O)ccc1NC(=O)N1C2CCC1CC(OCc1c(-c3c(Cl)cccc3Cl)noc1C1CC1)C2 (stereo not shown) [Example 721] | – | 10 to 100 nM | – | 133%
